Where two headings read alike, the source gives them in different places.
Legend:
[1] = target: GDP-bound KRAS protein (aa 1-169), containing both G12C and C118A amino acid substitutions (Homo sapiens, UniProt P01116, C118A/G12C); assay: Coupled nucleotide exchange assay (SOS-mediated, AlphaScreen); type: biochemical; conditions: 5 min compound pre-incubation
[2] = system: Phosphorylation of ERK1/2 in MIA PaCa-2 cells; assay: Phospho-ERK1/2 MSD assay in MIA PaCa-2 cells; type: cell-based; conditions: read-out: p-ERK IC50 (2 h; MIA PaCa-2), 2 h compound treatment
In short: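 IC50 comes from a 4-parameter logistic fit of MSD phospho-ERK1/2 signal in lysates. Before lysis, MIA PaCa-2 or A549 cells were exposed to titrated compound for 2 or 4 h at 37 °C, followed by a 10 min 10 ng/mL EGF stimulus.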

Chain of GDP-bound KRAS protein (aa 1-169), containing both G12C and C118A amino acid substitutions (P01116 1-169 isoform P01116-2 G12C/C118A): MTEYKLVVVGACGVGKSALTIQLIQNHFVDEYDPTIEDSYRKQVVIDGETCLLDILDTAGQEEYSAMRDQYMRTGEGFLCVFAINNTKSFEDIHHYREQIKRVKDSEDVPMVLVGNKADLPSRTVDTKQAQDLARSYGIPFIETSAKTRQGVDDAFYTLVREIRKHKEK

Structure (SMILES)	Coupled exchange IC50 (5 min) [1]	IC50 [2] [nM]	IC50 ([2]; Homo sapiens, MIA PaCa-2, 2 h) [nM]	IC50 ([2]; Homo sapiens) [nM]
C=CC(=O)N1CCN(c2nc(=O)n(-c3c(C)ccnc3C(C)C)c3nc(-c4c(O)cccc4Cl)c(F)cc23)[C@@H](C)C1 (single isomer, unassigned) [Example 58-9-2]	0.349 | nda μM	326		
C=CC(=O)N1CCN(c2nc(=O)n(-c3c(C)ccnc3C(C)C)c3nc(-c4ccc(F)cc4F)c(F)cc23)[C@@H](C)C1 (single isomer, unassigned) [Example 58-10-1]	0.264 | nda μM		257	
C=CC(=O)N1CCN(c2nc(=O)n(-c3c(C)cccc3C3CC3)c3nc(-c4c(O)cccc4F)c(F)cc23)[C@@H](C)C1 (single isomer, unassigned) [Example 58-13-2]	0.26 | nda μM		371	
C=CC(=O)N1CCN(c2nc(=O)n(-c3c(C(C)C)ccnc3C)c3nc(-c4ccccc4F)c(F)cc23)[C@@H](C)C1 (single isomer, unassigned) [Example 58-16-2]	0.315 | nda μM		317	
C=CC(=O)N1CCN(c2nc(=O)n(-c3ccccc3C(C)(C)C)c3nc(-c4ccccc4F)c(F)cc23)[C@@H](C)C1 (single isomer, unassigned) [Example 58-17-2]	0.849 | nda μM		672	
C=CC(=O)N1CCN(c2nc(=O)n(-c3c(C4CC4)ccnc3C)c3nc(-c4c(O)cccc4F)c(F)cc23)[C@@H](C)C1 (single isomer, unassigned) [Example 58-19-2]	0.226 | nda μM		525	
C=CC(=O)N1CCN(c2nc(=O)n(-c3c(C4CC4)ccnc3C)c3nc(-c4ccccc4F)c(F)cc23)[C@@H](C)C1 (single isomer, unassigned) [Example 58-20-2]	0.807 | nda μM		410	
C=CC(=O)N1CCN(c2nc(=O)n(-c3c(F)cccc3C(C)C)c3nc(-c4c(O)cccc4F)c(F)cc23)[C@@H](C)C1 (single isomer, unassigned) [Example 59-2-1]	0.112 | nda μM		137	
C=CC(=O)N1CCN(c2nc(=O)n(-c3c(F)cccc3C(C)C)c3nc(-c4ccccc4F)c(F)cc23)[C@@H](C)C1 (single isomer, unassigned) [Example 59-3-1]	0.128 | nda μM		343	
C=CC(=O)N1CCN(c2nc(=O)n(-c3c(C#N)cccc3C(C)C)c3nc(-c4ccccc4F)c(Cl)cc23)[C@@H](C)C1 (single isomer, unassigned) [Example 60-20-2]	0.024 | nda μM		33	
C=CC(=O)N1CCN(c2nc(=O)n(-c3c(C)ncnc3C3CC3)c3nc(-c4ccccc4F)c(Cl)cc23)[C@@H](C)C1 (single isomer, unassigned) [Example 60-30-2]	0.108 | nda μM		81	
C=CC(=O)N1CCN(c2nc(=O)n(-c3c(C)cccc3C(C)C)c3nc(-c4c(O)cccc4F)c(F)cc23)C[C@H]1C (single isomer, unassigned) [Example 63-2]	0.311 | nda μM		609	
C=CC(=O)N1C[C@H](C)N(c2nc(=O)n(-c3c(C)cccc3C(C)C)c3nc(-c4c(O)cccc4F)c(F)cc23)[C@@H](C)C1 (single isomer, unassigned) [Example 63-3]	0.059 | nda μM		108	
C=CC(=O)N1CCN(c2nc(=O)n(-c3c(C)cccc3C(C)C)c3nc(-c4c(O)cccc4Cl)c(F)cc23)[C@@H](C)C1 (single isomer, unassigned) [Example 68-1-1]	0.084 | nda μM	128		
C=CC(=O)N1CCN(c2nc(=O)n(-c3c(C)cccc3C(C)C)c3nc(-c4c(O)cccc4Cl)c(F)cc23)[C@@H](C)C1 (single isomer, unassigned) [Example 68-1-2]	0.613 | nda μM	735		
C=CC(=O)N1CCN(c2nc(=O)n(-c3c(C)cccc3C(C)C)c3nc(-c4c(C)ccc5[nH]ncc45)c(F)cc23)[C@@H](C)C1 (single isomer, unassigned) [Example 68-2-2]	0.31 | nda μM		607	
C=CC(=O)N1CCN(c2nc(=O)n(-c3c(C)cccc3C(C)C)c3nc(-c4nc(N)ccc4Cl)c(F)cc23)[C@@H](C)C1 (single isomer, unassigned) [Example 71-1-1]	0.49 | nda μM		725	
C=CC(=O)N1CCN(c2nc(=O)n(-c3ccccc3C(C)C)c3nc(-c4ccccc4F)c(C)cc23)[C@@H](C)C1 (single isomer, unassigned) [Example 74-1-2]	0.118 | nda μM		152	
C=CC(=O)N1CCN(c2nc(=O)n(-c3c(C)ccnc3C(C)C)c3nc(-c4ccccc4F)c(C)cc23)[C@@H](C)C1 (single isomer, unassigned) [Example 74-2-1]	0.26 | nda μM	136		
C=CC(=O)N1CCN(c2nc(=O)n(-c3c(C)ccnc3C(C)C)c3nc(-c4ccccc4F)c(C)cc23)[C@@H](C)C1 (single isomer, unassigned) [Example 74-2-2]	2.325 | nda μM	1040		
C=CC(=O)N1CCN(c2nc(=O)n(-c3c(C)ccnc3C(C)C)c3nc(-c4c(O)cccc4F)c(C)cc23)[C@@H](C)C1 (single isomer, unassigned) [Example 74-3-1]	0.05 | nda μM		103	
C=CC(=O)N1CCN(c2nc(=O)n(-c3c(C)ccnc3C(C)C)c3nc(-c4c(O)cccc4F)c(F)cc23)[C@@H](C(F)F)C1 (single isomer, unassigned) [Example 75-9-2, (M)-4-((2S or 2R)-2-(difluoromethyl)-4-(2-propenoyl)-1-piperazinyl)-6-fluoro-7-(2-fluoro-6-hydroxyphenyl)-1-(4-methyl-2-(2-propanyl)-3-pyridinyl)pyrido[2,3-d]pyrimidin-2(1H)-one]	0.136 | nda μM			113
C=CC(=O)N1[C@@H]2CCC[C@H]1CN(c1nc(=O)n(-c3c(C)ccnc3C(C)C)c3nc(-c4ccccc4F)c(Cl)cc13)C2 (single isomer, unassigned) [Example 78-2, (M)-6-chloro-7-(2-fluorophenyl)-1-(4-methyl-2-(2-propanyl)-3-pyridinyl)-4-(9-(2-propenoyl)-3,9-diazabicyclo[3.3.1]nonan-3-yl)pyrido[2,3-d]pyrimidin-2(1H)-one]	0.436 | nda μM		376	
C=CC(=O)N1CCN(c2nc(=O)n(-c3c(C)ccnc3C(C)C)c3nc(-c4ccccc4F)c(Cl)cc23)[C@@H](C(F)F)C1 (single isomer, unassigned) [Example 78-3-2]	0.094 | nda μM		80	

Continued, in another order:

Coupled exchange IC50 (5 min) [1]	IC50 [2] [nM]	IC50 ([2]; Homo sapiens, MIA PaCa-2, 2 h) [nM]	Structure (SMILES)	IC50 ([2]; Homo sapiens) [nM]
0.151 | nda μM		258	C=CC(=O)N1CCN(c2nc(=O)n(-c3c(C)cccc3C(C)C)c3nc(-c4cc(F)c(F)cc4O)c(Cl)cc23)[C@@H](C)C1 (single isomer, unassigned) [Example 64-2]	
0.189 | nda μM		219	C=CC(=O)N1CCN(c2nc(=O)n(-c3c(C)cccc3C(C)C)c3nc(-c4cccc(F)c4O)c(Cl)cc23)[C@@H](C)C1 (single isomer, unassigned) [Example 64-3]	
0.493 | nda μM		306	C=CC(=O)N1CCN(c2nc(=O)n(-c3c(C)ccnc3C(C)C)c3nc(-c4c(O)cccc4F)c(F)cc23)C[C@H]1C (single isomer, unassigned) [Example 75-2]	
0.552 | nda μM		543	C=CC(=O)N1CCN(c2nc(=O)n(-c3c(C)ccnc3C(C)C)c3nc(-c4c(O)cccc4F)c(F)cc23)CC1 (single isomer, unassigned) [Example 75-4, (M)-6-fluoro-7-(2-fluoro-6-hydroxyphenyl)-1-(4-methyl-2-(2-propanyl)-3-pyridinyl)-4-(4-(2-propenoyl)-1-piperazinyl)pyrido[2,3-d]pyrimidin-2(1H)-one]	
0.023 | nda μM		38	C=CC(=O)N1C[C@@H](C)N(c2nc(=O)n(-c3c(C)ccnc3C(C)C)c3nc(-c4c(N)cccc4F)c(F)cc23)[C@@H](C)C1 (single isomer, unassigned) [Example 75-8]	
0.141 | nda μM		246	C=CC(=O)N1CCN(c2nc(=O)n(-c3c(C)ccnc3C(C)C)c3nc(-c4ccccc4F)c(Cl)cc23)[C@H](C(F)F)C1 (single isomer, unassigned) [Example 78-3]	
0.349 | nda μM		2610	C=CC(=O)N1CCN(c2nc(=O)n(-c3c(C)ccnc3C(C)C)c3nc(-c4ccccc4F)c(Cl)cc23)C(CF)C1 (single isomer, unassigned) [Example 78-5, (M)-6-chloro-4-(2-(fluoromethyl)-4-(2-propenoyl)-1-piperazinyl)-7-(2-fluorophenyl)-1-(4-methyl-2-(2-propanyl)-3-pyridinyl)pyrido[2,3-d]pyrimidin-2(1H)-one]	
0.034 | nda μM		23	C=CC(=O)N1C[C@@H](C)N(c2nc(=O)n(-c3c(C)ccnc3C(C)C)c3nc(-c4ccccc4F)c(Cl)cc23)[C@@H](C)C1 (single isomer, unassigned) [Example 78-7, (M)-6-chloro-4-(cis-2,6-dimethyl-4-(2-propenoyl)-1-piperazinyl)-7-(2-fluorophenyl)-1-(4-methyl-2-(2-propanyl)-3-pyridinyl)pyrido[2,3-d]pyrimidin-2(1H)-one]	

Reference: patent US11090304B2 (Amgen Inc., priority 2018, dated 2021)
